The values that follow come from paper PMC9914411, “Potent Xanthine Oxidase Inhibitory Activity of Constituents of Agastache rugosa (Fisch. and C.A.Mey.) Kuntze” (Foods, 2023).

Molecules are shown by their SMILES. Read-outs that look alike come from different tables or passages of the source.

Test [1] concerns the target T1, bovine milk XO (Bos taurus, UniProt P80457).
T1 construct: The bovine milk XO activity was assayed; from tissue; host or cells: bovine milk
In words: XO inhibitory activity assay (uric acid formation from xanthine, absorbance at 295 nm). It counts as biochemical. The note with it: for inhibition at 25 µM: read-out: Xanthine Oxidase Inhibition %; for inhibition at 5 µM: read-out: XO inhibitory activity (%). The protocol:
The bovine milk XO activity was assayed following the previously published procedures. […] First, 125 µL of 100 mM sodium pyrophosphate buffer (HCl, pH 7.5), 30 µL of 0.1 units XO enzyme, 5 µL of test samples, and 40 µL of the substrate (0.5 mM xanthine) were mixed. […] The inhibition mechanism and constants (Km, Vmax, and Ki) of a binding site for the inhibitor to a free enzyme (KI) or an enzyme–substrate complex (KIS) were determined using the Lineweaver–Burk and Dixon plots.
The ARE was prepared using five different polar solvents (EtOH, 70% EtOH, 50% EtOH, 30% EtOH, and H2O) and tested for their XO inhibitory activity.

Test [2] deals with T1, bovine milk XO. Description: XO kinetic assay (Lineweaver–Burk and Dixon plots, reversibility, preincubation). It counts as biochemical. The note with it: for Xanthine Oxidase Kinetic Mode: Lineweaver–Burk and Dixon plots. As for the experimental part: The bovine milk XO activity was assayed following the previously published procedures. […] First, 125 µL of 100 mM sodium pyrophosphate buffer (HCl, pH 7.5), 30 µL of 0.1 units XO enzyme, 5 µL of test samples, and 40 µL of the substrate (0.5 mM xanthine) were mixed. The reaction mixture (200 µL) in a 300 µL well plate was incubated at 37 °C and the UV absorbance at 295 nm was screened every 1 min for 15 min. The inhibition mechanism and constants (Km, Vmax, and Ki) of a binding site for the inhibitor to a free enzyme (KI) or an enzyme–substrate complex (KIS) were determined using the Lineweaver–Burk and Dixon plots. 1/V = Km/Vmax (1 + [I]/KI) 1/S + 1/Vmax(1) Slope = Km/KI Vmax [I] + Km/Vmax (2) Intercept = 1/KIS Vmax [I] + 1/Vmax (3) […]
The kinetic behaviors of the oxidation of xanthine catalyzed by XO at different concentrations of inhibitor were analyzed using both Lineweaver–Burk (Figure 3A) and Dixon plots (Figure 3B). […] The two possible inhibition mechanisms were investigated to reveal which one gives this kinetic profile. The mechanisms of mixed inhibition can be investigated through the changes of the substrate with inhibitor followed by measurements of the residual enzyme–substrate complex. Parameters of free enzyme (KI) and the enzyme–substrate complex (KIS) can be fitted to Equations (2) and (3). […] Further analysis of the progress of the inhibition was undertaken by preincubating the enzyme with 7, prior to the addition of the substrate.

[3] abbreviates: sample concentration 25 µM for the compound.
Where [4] appears, read: isolated compounds and positive controls, read-out: Xanthine Oxidase IC50.

T1 sequence (P80457 whole entry): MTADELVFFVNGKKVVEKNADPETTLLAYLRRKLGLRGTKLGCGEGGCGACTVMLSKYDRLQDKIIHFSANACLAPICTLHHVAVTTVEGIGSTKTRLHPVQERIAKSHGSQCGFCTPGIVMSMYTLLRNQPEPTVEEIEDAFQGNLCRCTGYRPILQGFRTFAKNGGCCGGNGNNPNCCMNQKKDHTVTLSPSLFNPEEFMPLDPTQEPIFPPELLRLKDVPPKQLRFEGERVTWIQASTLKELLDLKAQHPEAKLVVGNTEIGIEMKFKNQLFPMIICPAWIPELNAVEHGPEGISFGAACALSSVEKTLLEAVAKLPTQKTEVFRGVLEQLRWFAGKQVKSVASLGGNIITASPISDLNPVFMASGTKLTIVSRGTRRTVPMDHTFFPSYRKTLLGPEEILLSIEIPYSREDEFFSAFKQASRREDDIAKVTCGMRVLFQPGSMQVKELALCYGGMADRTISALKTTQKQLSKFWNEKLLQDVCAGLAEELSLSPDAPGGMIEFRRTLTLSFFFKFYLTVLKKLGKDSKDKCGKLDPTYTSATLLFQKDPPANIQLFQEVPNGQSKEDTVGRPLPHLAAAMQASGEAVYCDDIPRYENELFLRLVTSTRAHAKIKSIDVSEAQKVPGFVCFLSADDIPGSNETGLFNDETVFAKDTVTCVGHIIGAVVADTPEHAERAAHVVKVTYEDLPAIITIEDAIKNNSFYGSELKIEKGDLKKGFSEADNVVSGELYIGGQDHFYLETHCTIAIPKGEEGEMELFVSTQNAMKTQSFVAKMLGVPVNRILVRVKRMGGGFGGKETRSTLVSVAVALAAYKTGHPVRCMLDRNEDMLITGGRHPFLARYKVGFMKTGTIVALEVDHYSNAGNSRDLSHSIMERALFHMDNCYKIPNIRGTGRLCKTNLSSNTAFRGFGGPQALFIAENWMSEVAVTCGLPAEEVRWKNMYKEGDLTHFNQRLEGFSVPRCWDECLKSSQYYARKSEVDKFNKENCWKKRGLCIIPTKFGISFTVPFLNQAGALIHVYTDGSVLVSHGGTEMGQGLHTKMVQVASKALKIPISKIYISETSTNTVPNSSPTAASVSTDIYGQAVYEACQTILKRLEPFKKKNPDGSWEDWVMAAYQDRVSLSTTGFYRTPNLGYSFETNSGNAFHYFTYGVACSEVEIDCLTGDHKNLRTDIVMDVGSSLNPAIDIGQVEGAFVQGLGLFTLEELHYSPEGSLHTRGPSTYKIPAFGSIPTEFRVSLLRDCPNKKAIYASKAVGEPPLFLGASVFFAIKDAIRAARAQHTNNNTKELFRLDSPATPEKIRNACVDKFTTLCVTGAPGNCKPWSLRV

As usually defined, the IC50 is the midpoint of a concentration-inhibition curve. In turn, `O=C(/C=C/c1ccc(O)c2c1[C@H](C(=O)O[C@H](Cc1ccc(O)c(O)c1)C(=O)O)[C@@H](c1ccc(O)c(O)c1)O2)O[C@H](Cc1ccc(O)c(O)c1)C(=O)O` [Compound 2, Salvianolic acid B] showed an IC50 at bovine milk XO [1] of 30.7 ± 0.8 µM. The inhibition at 25 µM on bovine milk XO [1] (setting [3]) was found to be 46.1 ± 1.2%.
In the case of `Oc1ncnc2[nH]ncc12` [Allopurinol, reference compound], on bovine milk XO [2], the “Xanthine Oxidase Kinetic Mode” value is “Competitive”. Besides, at bovine milk XO [1], the inhibition at 5 µM turned out to be 51.9% and the inhibition at 25 µM was found to be 82.5 ± 1.2%.
As for `O=c1cc(-c2ccc(O)cc2)oc2cc(O)cc(O)c12` [Apigenin, reference compound], the “Xanthine Oxidase Kinetic Mode” value at bovine milk XO [2] is recorded as “Competitive”. Besides, the inhibition at 5 µM on bovine milk XO [1] (concentration of 5 μM) is 67.2%. At bovine milk XO [1] (setting [4]), the IC50 stood at 0.87 µM. Further, at bovine milk XO [1] (setting [3]), the inhibition at 25 µM worked out at 88.6 ± 1.2%.
For `COc1ccc(-c2cc(=O)c3c(O)cc(O[C@@H]4O[C@H](CO)[C@@H](O)[C@H](O)[C@H]4O)cc3o2)cc1` [Compound 3, Tilianin], the IC50 on bovine milk XO [1] (setting [4]) is 26.4 ± 0.6 µM. The inhibition at 25 µM at bovine milk XO [1] (setting [3]) amounted to 49.3 ± 1.5%.
Regarding `COc1ccc(-c2cc(=O)c3c(O)cc(OC4OC(COC(=O)CC(=O)O)C(O)C(O)C4OC(C)=O)cc3o2)cc1` [Compound 6, Acacetin 7-O-(2″-O-acetyl-6″-O-malonyl)-β-D-glucoside], on bovine milk XO [1] (setting [4]), the IC50 was greater than 100 µM. Moreover, the inhibition at 25 µM at bovine milk XO [1] (setting [3]) worked out at 26.2 ± 0.9%.
Regarding `O=C(/C=C/c1ccc(O)c(O)c1)O[C@H](Cc1ccc(O)c(O)c1)C(=O)O` [Compound 1, Rosmarinic acid], the IC50 on bovine milk XO [1] (setting [4]) is greater than 100 µM. For the same molecule, on bovine milk XO [1] (setting [3]), the inhibition at 25 µM came to 27.2 ± 1.5%.
As a reminder, the Ki is a measure of affinity in units of concentration, obtained from inhibition or displacement. As for `COc1ccc(-c2cc(=O)c3c(O)cc(O)cc3o2)cc1` [Compound 7, Acacetin], the Ki at bovine milk XO [2] (Dixon plots, read-out: Xanthine Oxidase Ki) was found to be 0.61 µM; at bovine milk XO [2] (secondary plot of slope, Equation (2), read-out: KI (inhibitor binding to free enzyme)), 0.57 µM. Moreover, the “Xanthine Oxidase Kinetic Mode” value at bovine milk XO [2] is “mixed type I”. Besides, on bovine milk XO [2] (activity versus enzyme concentration at 0-1.56 μM inhibitor), the “Reversibility of XO inhibition” value is listed as “reversible inhibition”. Also, the “Inhibition as a function of preincubation time” value on bovine milk XO [2] (enzyme preincubated with inhibitor at 0.2 μM) is “time-dependent inhibitory behavior”. Besides, the “KIS (inhibitor binding to enzyme–substrate complex)” value on bovine milk XO [2] (secondary plot of intercept, Equation (3)) worked out at 1.14 µM. Also, the inhibition at 5 µM on bovine milk XO [1] (concentration of 5 μM) came out at 75.5%. Further, on bovine milk XO [1] (setting [4]), the IC50 came to 0.58 ± 0.5 µM. Besides, the inhibition at 25 µM at bovine milk XO [1] (setting [3]) was found to be 94.5 ± 1.4%.
For `COc1ccc(-c2cc(=O)c3c(O)cc(OC4OC(COC(=O)CC(=O)O)C(O)C(O)C4O)cc3o2)cc1` [Compound 4, Acacetin 7-O-(6-O-malonyl)-β-D-glucoside], the IC50 on bovine milk XO [1] (setting [4]) is 80.6 ± 0.7 µM. For the same molecule, the inhibition at 25 µM on bovine milk XO [1] (setting [3]) came to 36.2 ± 1.4%.
The like results for `COc1ccc(-c2cc(=O)c3c(O)cc(OC4OC(CO)C(O)C(O)C4OC(C)=O)cc3o2)cc1` [Compound 5, Acacetin 7-O-(2″-O-acetyl)-β-D-glucoside] were, in that order, 74.5 ± 0.9 µM and 40.7 ± 1.5%.
